# Reference: BindingDB's records for doi:10.1021/acs.jmedchem.6b00703 (Novartis Institutes of Biomedical Research (Nibr), 2016)
# Experiment: Inhibition of PDGFR-beta driven proliferation of rat A10 cells after 68 hrs in presence of rat recombinant PDGF-BB by cell titer-glo luminescence assay
row,IC50,SMILES
1,162 nM,Cc1ccc(NC(=O)c2ccc(CN3CCN(C)CC3)cc2)cc1Nc1nccc(-c2cccnc2)n1
2,3 nM,Cn1nccc1-c1ccn2c(C(=O)Nc3cc(C(=O)NCc4ccc(F)c(F)c4)ccc3F)cnc2c1
3,7.9 nM,CN1CCN(c2ccccc2CNC(=O)c2ccc(F)c(NC(=O)c3cnc4cc(-c5cccnc5)ccn34)c2)CC1
4,8.7 nM,C[C@@H]1CCC[C@H](C)N1CCNC(=O)c1ccc(F)c(NC(=O)c2cnc3cc(-c4ccnn4C)ccn23)c1
5,1.7 nM,Cn1cc(-c2ccn3c(C(=O)Nc4cc(C(=O)NCCN5CCCC5(C)C)ccc4F)cnc3c2)cn1
6,3.6 nM,CN1CCN(c2ccccc2CNC(=O)c2ccc(F)c(NC(=O)c3cnc4cc(-c5cnn(C)c5)ccn34)c2)CC1
7,2.7 nM,Cn1nccc1-c1ccn2c(C(=O)Nc3cc(C(=O)NCC4CCC(C)(C)O4)ccc3F)cnc2c1 (configuration not stated)
8,23 nM,CN(CCNC(=O)c1ccc(F)c(NC(=O)c2cnc3cc(-c4ccnn4C)ccn23)c1)C(C)(C)C
9,19 nM,CN1CCN(c2ccccc2CNC(=O)c2ccc(F)c(NC(=O)c3cnc4cc(-c5cc[nH]n5)ccn34)c2)CC1
10,13 nM,Cc1ncc(C(=O)NCCN2CCCC2(C)C)cc1NC(=O)c1cnn2cc(-c3cnn(C)c3)ccc12
11,12 nM,Cc1ccc(C(=O)NCc2ccccc2)cc1NC(=O)c1cnn2ccccc12
12,35 nM,Cc1ncc(C(=O)NCc2ccccc2N2CCN(C)CC2)cc1NC(=O)c1cnn2cc(-c3ccnn3C)ccc12
13,9.2 nM,CN1CCN(c2ccccc2CNC(=O)c2ccc(F)c(NC(=O)c3cnc4cc(-c5ccnn5C)ccn34)c2)CC1
14,10 nM,CN1CCN(c2ccccc2CNC(=O)c2ccc(F)c(NC(=O)c3cnn4cc(-c5ccnn5C)ccc34)c2)CC1
15,9.5 nM,Cn1nccc1-c1ccn2c(C(=O)Nc3cc(C(=O)NCCN4CCCC4(C)C)ccc3F)cnc2c1
16,22 nM,CCN(CCNC(=O)c1ccc(F)c(NC(=O)c2cnc3cc(-c4ccnn4C)ccn23)c1)C(C)(C)C
17,36 nM,CN1CCN(c2ccccc2CNC(=O)c2ccc(F)c(NC(=O)c3cnc4ccccn34)c2)CC1
